# Measurements taken from article PMC7274485, “A symbiotic bacterium of shipworms produces a compound with broad spectrum anti-apicomplexan activity” (PLoS Pathogens, 2020).
# How the values were obtained:
# T. gondii = assay: Intracellular T. gondii growth inhibition, luciferase expression in HFF cells; format: cell-based; settings: Toxoplasma gondii; luciferase expressing RH or ME49 strain in HFF cells; trtE added 24 hours post-infection, read 24 hours later; purification method 1 or 2; read-out: EC50 against intracellular T. gondii
# Protocol: To obtain sufficient trtE for in vitro and in vivo experiments, bacterial growth conditions were optimized, and a modified purification method was developed and validated by ESI-HRMS, LC/MS/MS and NMR (purification method 2; see methods and S8–S9 Figs). To determine the effective concentration at which trtE inhibited the growth of 50% of T. gondii parasites (EC50), HFF cells were seeded into 96 well plates and infected with luciferase expressing T. gondii tachyzoites. 24 hours post-infection two-fold serial dilutions of trtE, purified by method 1 or method 2, or DMSO vehicle control were added to the infected cells. 24 hours later, the infected cells were lysed and parasite growth quantified by luciferase expression. The EC50 of trtE against intracellular T. gondii was determined to be 3 nM regardless of purification method.
# T. gondii parasite lines were maintained by passage in HFFs as previously described. […] Growth was monitored by luciferase expression using Bright-glo Luciferase assay system (Promega Corp., Madison, WI). […] Infected cells were then incubated for 72 hours before growth was quantified by luciferase expression. […]
# Sarcocystis neurona = Sarcocystis neurona GFP/Luc merozoite growth in bovine turbinate cells, luciferase expression; format: cell-based; settings: 24 hours treatment, read-out: EC50 against S. neurona
# Protocol: Culture of Sarcocystis neurona GFP/Luc merozoites in bovine turbinate cells and in vitro drug response assays were conducted as previously described.
# A. Bovine turbinate cells infected with luciferase expressing Sarcocystis neurona merozoites were treated with trtE for 24 hours and parasite growth evaluated by luciferase expression. […] B. Theileria equi-infected erythrocytes were incubated with trtE or DMSO vehicle control and proliferation was measured after 72 hours by SYBR green incorporation. Percent proliferation was calculated relative to DMSO treated controls. […] (DOCX) Click here for additional data file.
# [1] = system: intracellular T. gondii RH strain; assay: Immunofluorescence assay (anti-SAG1) of T. gondii-infected HFF cells; format: cell-based, Toxoplasma gondii; settings: RH strain in HFF; 60 nM trtE for 24 hours (Fig 2B)
# From the text: For our initial study, we chose to look for anti-apicomplexan compounds in Teredinibacter turnerae. T. turnerae is a gill symbiotic bacterium common to many species of shipworms. We grew two strains of T. turnerae, T7901 [1] and T7902 [24], in shipworm bacterial media (SBM), pelleted the cells and tested the culture supernatants for activity against T. gondii. We chose T. gondii, a ubiquitous coccidian parasite, as a target parasite because it represents a significant human and animal pathogen, it is easily propagated in vitro and is amenable to genetic manipulation. T. gondii is often used as a model for other, more challenging apicomplexans. […] Parasites were evaluated after 24 hours of treatment by immunofluorescence (IFA) microscopy with rabbit antibody to the T. gondii surface antigen, SAG1 [27]. […]
# For all IFAs, the investigator reading the slides and collecting images was blind to the sample treatment. […] 24 hours post treatment, infected cells were fixed with methanol, and parasites detected with rabbit anti-SAG1 antibody for T. gondii or rabbit anti-gp15 for C. parvum as we have described previously. […] This CE11 line is transiently transfected with a plasmid that expresses nanoluciferase from a B. divergens promoter and green fluorescence protein-blasticidin (gfp-bsd) from the selection cassette. […]
# [2] = system: Toxoplasma gondii bradyzoites; assay: Very preliminary study against T. gondii bradyzoites; format: cell-based; settings: close to the level of toxicity for the host cells
# Bovine turbinate cells = assay: Cytotoxicity for host cells, cellular ATP (CellTiter-Glo): BT cells
# Protocol: Toxicity was evaluated by measuring cellular ATP concentrations.
# HCT8, HFF and BT cells were seeded in 96-well plates to achieve 20–30% confluence after 24 hours of growth.
smiles,measurement,setting,value
"CC1CCC=CC=CCCC(O)CC(=O)CC2CCC(C)C3(O2)O[B-]24OC(C(=O)O1)C1(OC(CCC1C)CC(=O)CC(O)CCC=CC=CCCC(C)OC(=O)C3O2)O4 (stereo not drawn) [trtE, tartrolon E]",EC50,T. gondii,3 nM
same,EC50,Sarcocystis neurona,12.9 nM
same,Effect of purified trtE on intracellular T. gondii (IFA),[1],inhibited intracellular T. gondii growth
same,Concentration at which trtE was effective against bradyzoites,[2],~ 1 µM
same,TC50 (median toxic concentration) for BT cells,"Bovine turbinate cells; 20–30% confluency, 24 hours, cellular ATP",16800 nM
same,"Selectivity Index, S. neurona vs Bovine turbinate cells",Bovine turbinate cells; TC50/EC50,1302
